Values of other authors in US20200397820A1, “Glycerol Release Promoter” (KOHAKU BIO TECHNOLOGY CO., LTD., priority 2018, published 2020).

Tested on: cultured adipocytes
Conditions: Patent Literature 10

SMILES: C[C@@]12C[C@@]3(O)O[C@@H](O1)[C@]1(COC(=O)c4ccccc4)[C@H]3C[C@@]12O[C@@H]1O[C@H](CO)[C@@H](O)[C@H](O)[C@H]1O [Paeoniflorin]
- release of glycerol into the culture medium: promotes the release of glycerol
